Values after ≈ are worked out from the molar mass of the structure shown.

Data set [1] is described as follows: Determination of water solubility in phosphate buffer. The data set is classed as physicochemical. The note with it: for solubility at 24 h: thermodynamic from solid; for water solubility compared with nitroxoline: conclusion in words. An excerpt: Experimental instruments: 96-well filter plate (MSHVN4510 or MSHVN4550, Millipore); electronic digital display vortex mixer (MS3 Digital, IKA); multi-purpose vacuum pump (circulating water type, SHB-111, Zhengzhou Greatwall Scientific Industrial and Trade Co., Ltd.); balance (XSLT05, Mettler-Toledo); comfortable mixer (Eppendorf AG 22331 Hamburg, Eppendorf); liquid chromatography (LC-3AD, Shimadzu); mass spectrometry (API4000, Applied Biosystems, USA); sample injector (Anylytics AG System, CTC). Nitroxoline was prepared according to the method disclosed in Journal of Heterocyclic Chemistry, 1971, vol. 8, p 821 by Wisdom Pharmaceutical Co., Ltd.
Experimental process: 500 μL of phosphate buffer (pH=1.2, 4.5, 6.8 or 7.4) were added to a glass flask, to which 2 mg of compound powder were added. The flask was sealed with a cap and shaked on a mixer (VORTEX-GENIE2) at room temperature for 24 hours. The solution was subjected to vacuum filtration, and the filtrate was processed to determine the compound concentration by LC/MS/MS.

Data set [2] is described as follows: Stability in dog liver microsome. The note with it: 2 μM, 37° C., 30 minutes.
Data set [3] in a line: Stability in human liver microsome. The following applies: 2 μM, 37° C., 30 minutes. A general note: Liver microsomes are vesicles of endoplasmic reticulum, rich in cytochrome P450 enzymes.
Data set [4] is described as follows: Stability in rat liver microsome. The note with it: 2 μM, 37° C., 30 minutes.
Protocol: Experimental instruments: thermostatic shaker (SHA-B, Guohua Electric Appliance Co., Ltd.); centrifuge (5810R, Eppendorf); mass spectrometry (API4000, Applied Biosystems, USA); liquid chromatography (LC-30AD, Shimadzu); sample injector (CTC Analytics AG System, CTC).
Experimental process: 25 μg/mL alamethicin (Aldrich), 5 mM magnesium chloride and 0.5 mg/mL microsome (XENOTECH) were added to 100 mM phosphate buffer to obtain a coenzyme-free reaction solution. A portion of the coenzyme-free reaction solution was added with 1 mM reductive nicotinamide adenine dinucleotide phosphate (Aldrich) and 5 mM uridine diphosphate glucuronic acid (Aldrich) to obtain a coenzyme-containing reaction solution. The working solution of the compound of the present invention was added to the two reaction solutions so that the final concentration of the compound was 2 μM. Immediately after mixing well, 50 μL of the solution were taken out as the 0 minute sample, and 50 μL of the remaining sample were taken out after incubating at 37° C. for 30 minutes. All the samples taken out were immediately processed to precipitate protein, and centrifuged to obtain a supernate for the determination of the compound concentration by LC/MS/MS.
Data set [5] is described as follows: Stability in mouse liver microsome. In kind it is in vitro ADME. The following applies: 2 μM, 37° C., 30 minutes.
The mark [6] stands for this setting: aqueous buffer, phosphate buffer pH 7.4, room temperature.
Setting [7] is: simulated gastric fluid, phosphate buffer pH 1.2, room temperature.

A word on the solubility: it is how much of the substance goes into solution per volume. Higher therefore signals a readily soluble substance. `O=C(O)CCC(=O)OCOc1ccc([N+](=O)[O-])c2cccnc12` [Compound 8, 4-((5-nitroquinolin-8-yloxy)methoxy)-4-oxobutanoic acid] had a solubility at 24 h in data set [1] (setting [6]) below 0.44 µg/mL.
`O=C(CCCCCCCO)OCOc1ccc([N+](=O)[O-])c2cccnc12` [Compound 10, (5-nitroquinolin-8-yloxy)methyl 8-hydroxyoctanoate]: the solubility at 24 h in data set [1] (setting [6]) was 39.1 µg/mL (≈ 108 µM). Further, the “Percentage of the compound remaining in dog liver microsome” value in data set [2] (with coenzyme) is reported as 0.01%; in data set [2] (without coenzyme), 0.04%. The “Percentage of the compound remaining in human liver microsome” value was found to be 0.01% in data set [3] (with coenzyme) and 0.04% in data set [3] (without coenzyme). In addition, the “Percentage of the compound remaining in rat liver microsome” value in data set [4] (with coenzyme) amounted to 0.02%; in data set [4] (without coenzyme), 0.03%.
The compound `COC(=O)CCCCC(=O)OCOc1ccc([N+](=O)[O-])c2cccnc12` [Compound 11, methyl (5-nitroquinolin-8-yloxy)methyl adipate] came in with a solubility at 24 h in data set [1] (setting [6]) of 66.9 µg/mL (≈ 185 µM). Moreover, the “Percentage of the compound remaining in dog liver microsome” value in data set [2] (with coenzyme) was found to be 0.01%; in data set [2] (without coenzyme) it was 0.04%. In addition, the “Percentage of the compound remaining in human liver microsome” value in data set [3] (with coenzyme) and in data set [3] (without coenzyme) was 0.01% each time. For the same compound, the “Percentage of the compound remaining in rat liver microsome” value in data set [4] (with coenzyme) was determined as 0.05%; in data set [4] (without coenzyme), 0.03%.
Compound `CC(C)(C)OC(=O)NCCCCCCC(=O)OCOc1ccc([N+](=O)[O-])c2cccnc12` [Compound 12, (5-nitroquinolin-8-yloxy)methyl 7-(tert-butoxycarbonylamino)heptanoate] returned a solubility at 24 h in data set [1] (setting [6]) of 1.85 µg/mL (≈ 4.13 µM). The “Percentage of the compound remaining in dog liver microsome” value amounted to 0.00% in data set [2] (with coenzyme) and 0.02% in data set [2] (without coenzyme). Moreover, the figures for the “Percentage of the compound remaining in human liver microsome” value in data set [3] (with coenzyme) and in data set [3] (without coenzyme) were 0.00% and 0.03%, respectively. For the same compound, the figures for the “Percentage of the compound remaining in rat liver microsome” value in data set [4] (with coenzyme) and in data set [4] (without coenzyme) were 0.00% and 0.02%, respectively.
In the case of `CC(C)(C)OC(=O)N[C@@H](Cc1ccccc1)C(=O)OCOc1ccc([N+](=O)[O-])c2cccnc12` [Compound 13, (S)-(5-Nitroquinolin-8-yloxy)methyl 2-(tert-butoxycarbonylamino)-3-phenylpropionate], the “Percentage of the compound remaining in dog liver microsome” value in data set [2] (with coenzyme) and in data set [2] (without coenzyme) was 0.02% throughout. Further, the “Percentage of the compound remaining in human liver microsome” value in data set [3] (with coenzyme) is listed as 0.01%; in data set [3] (without coenzyme) it was 0.02%. Further, the “Percentage of the compound remaining in rat liver microsome” value in data set [4] (with coenzyme) is listed as 0.01%; in data set [4] (without coenzyme) it was 0.02%.
In the case of `CC(=O)N[C@@H](CC(C)C)C(=O)NCC(=O)OCOc1ccc([N+](=O)[O-])c2cccnc12` [Compound 15, (S)-(5-nitroquinolin-8-yloxy)methyl 2-(2-acetamido-4-methylpentanamido)acetate], the solubility at 24 h in data set [1] (setting [6]) amounted to 205 µg/mL (≈ 475 µM).
For `CSC[C@H](NC(C)=O)C(=O)OCOc1ccc([N+](=O)[O-])c2cccnc12` [Compound 16, (R)-(5-nitroquinolin-8-yloxy)methyl 2-acetamido-3-(methylthio)propionate], the solubility at 24 h in data set [1] (setting [6]) was 254 µg/mL (≈ 669 µM); in data set [1] (setting [7]), 443 µg/mL (≈ 1170 µM).
As to `CC(C)C(=O)N1CCC[C@@H]1C(=O)OCOc1ccc([N+](=O)[O-])c2cccnc12` [Compound 23, (R)-(5-nitroquinolin-8-yloxy)methyl 1-isopropionylpyrrolidine-2-carboxylate], the solubility at 24 h was 818 µg/mL (≈ 2110 µM) in data set [1] (setting [6]) and 945 µg/mL (≈ 2440 µM) in data set [1] (setting [7]). Also, the “water solubility compared with nitroxoline” value in data set [1] is on record as “increased by several times”.
Take `CC(C)(C)C(=O)N1CCC[C@@H]1C(=O)OCOc1ccc([N+](=O)[O-])c2cccnc12` [Compound 24, (R)-(5-nitroquinolin-8-yloxy)methyl 1-pivaloylpyrrolidine-2-carboxylate]: the solubility at 24 h is 73.6 µg/mL (≈ 183 µM) in data set [1] (setting [6]) and 942 µg/mL (≈ 2350 µM) in data set [1] (setting [7]).
`O=C(OCOc1ccc([N+](=O)[O-])c2cccnc12)[C@@H]1CCCN1C(=O)c1ccccn1` [Compound 25, (S)-(5-nitroquinolin-8-yloxy)methyl 1-pyridineformylpyrrolidine-2-carboxylate]: the solubility at 24 h in data set [1] (setting [6]) was 275 µg/mL (≈ 651 µM).
Turning to `CC(=O)N[C@@H](Cc1ccc(O)cc1)C(=O)N1CCC[C@H]1C(=O)OCOc1ccc([N+](=O)[O-])c2cccnc12` [Compound 28, (S)-(5-nitroquinolin-8-yloxy)methyl 1-((S)-2-acetamido-3-(4-hydroxyphenyl)propionyl)pyrrolidine-2-carboxylate], the solubility at 24 h in data set [1] (setting [6]) is 25.1 µg/mL (≈ 48.1 µM); in data set [1] (setting [7]) it was 342 µg/mL (≈ 654 µM).
As to `CC(=O)N[C@@H](CO)C(=O)N1CCC[C@H]1C(=O)OCOc1ccc([N+](=O)[O-])c2cccnc12` [Compound 30, (S)-(5-nitroquinolin-8-yloxy)methyl 1-((S)-2-acetamido-3-hydroxypropionyl)pyrrolidine-2-carboxylate], the results for the solubility at 24 h in data set [1] (setting [6]) and in data set [1] (setting [7]) were below 0.25 µg/mL and 940 µg/mL (≈ 2110 µM), respectively. For the same compound, the “water solubility compared with nitroxoline” value in data set [1] is recorded as “increased by several times”.
Compound `COCC(=O)OCOc1ccc([N+](=O)[O-])c2cccnc12` [Compound 31, (5-nitroquinolin-8-yloxy)methyl 2-methoxyacetate] gave a solubility at 24 h in data set [1] (setting [6]) of 10.8 µg/mL (≈ 37.1 µM).
On the same count and under the same terms, under `O=C(OCOc1ccc([N+](=O)[O-])c2cccnc12)C1CCC1` [Compound 32, (5-nitroquinolin-8-yloxy)methyl cyclobutanecarboxylate] stands 28.4 µg/mL (≈ 94.1 µM).
Turning to `CC(=O)Oc1ccccc1C(=O)OCOc1ccc([N+](=O)[O-])c2cccnc12` [Compound 34, (5-nitroquinolin-8-yloxy)methyl 2-acetoxybenzoate], in data set [1] (setting [6]), the solubility at 24 h was determined as 6.67 µg/mL (≈ 17.4 µM).
Take `O=C(COc1ccc(Cl)cc1Cl)OCOc1ccc([N+](=O)[O-])c2cccnc12` [Compound 35, (5-nitroquinolin-8-yloxy)methyl 2-(2,4-dichlorophenoxy)acetate]: the solubility at 24 h in data set [1] (setting [6]) amounted to 0.04 µg/mL (≈ 0.0945 µM).
On the same count and under the same terms, under `O=C(CN1CCOCC1)OCOc1ccc([N+](=O)[O-])c2cccnc12` [Compound 36, (5-nitroquinolin-8-yloxy)methyl 2-morpholinoacetate] stands 298 µg/mL (≈ 858 µM); under `CCCCCC(=O)OCOc1ccc([N+](=O)[O-])c2cccnc12` [Compound 40, (5-nitroquinolin-8-yloxy)methyl hexanoate], 7.4 µg/mL (≈ 23.2 µM).
Same read-out and setting: then `CCCCCCCC(=O)OCOc1ccc([N+](=O)[O-])c2cccnc12` [Compound 41, (5-nitroquinolin-8-yloxy)methyl octanoate], with below 0.4 µg/mL; and `CCCCCCCCCC(=O)OCOc1ccc([N+](=O)[O-])c2cccnc12` [Compound 42, (5-nitroquinolin-8-yloxy)methyl decanoate], with below 0.26 µg/mL; and `CCCCCCCCCCCC(=O)OCOc1ccc([N+](=O)[O-])c2cccnc12` [Compound 43, (5-nitroquinolin-8-yloxy)methyl dodecanoate], with below 0.25 µg/mL.
The same measure, in the same setting: then `O=C1CCCC(Oc2ccc([N+](=O)[O-])c3cccnc23)O1` (stereo not drawn) [Compound 44, 6-(5-nitroquinolin-8-yloxy)-tetrahydropyran-2-one], with 19.9 µg/mL (≈ 68.9 µM).
As to `O=C(CCCCC(=O)OCOc1ccc([N+](=O)[O-])c2cccnc12)OCOc1ccc([N+](=O)[O-])c2cccnc12` [Compound 46, bis(5-nitroquinolin-8-yloxy)-methyl adipate], the “Percentage of the compound remaining in dog liver microsome” value in data set [2] (with coenzyme) is given as 0.01%; in data set [2] (without coenzyme), 0.03%. The figures for the “Percentage of the compound remaining in human liver microsome” value in data set [3] (with coenzyme) and in data set [3] (without coenzyme) were 0.00% and 0.06%, respectively. The “Percentage of the compound remaining in rat liver microsome” value is listed as 0.00% in data set [4] (with coenzyme) and 0.05% in data set [4] (without coenzyme).
`CCC(=O)OC(C)Oc1ccc([N+](=O)[O-])c2cccnc12` (stereo not drawn) [Compound 48, 1-(5-nitroquinolin-8-yloxy)ethyl propionate]: the “Percentage of the compound remaining in dog liver microsome” value in data set [2] (with coenzyme) was 0.03%; in data set [2] (without coenzyme), 0.02%. The entries for the “Percentage of the compound remaining in human liver microsome” value in data set [3] (with coenzyme) and in data set [3] (without coenzyme) were 0.08% and 0.10%, respectively. The “Percentage of the compound remaining in mouse liver microsome” value in data set [5] (with coenzyme) is listed as 0.03%; in data set [5] (without coenzyme), 0.05%. In addition, the “Percentage of the compound remaining in rat liver microsome” value worked out at 0.06% in data set [4] (with coenzyme) and 0.03% in data set [4] (without coenzyme).
With `CC(C)OC(=O)OCOP(=O)(O)OCOc1ccc([N+](=O)[O-])c2cccnc12` [Compound 72, (hydroxy((5-nitroquinolin-8-yloxy)methoxy)phosphoryloxy)methyl isopropyl carbonate], the solubility at 24 h in data set [1] (setting [6]) is 1040 µg/mL (≈ 2490 µM). The “water solubility compared with nitroxoline” value in data set [1] was “increased by several times”.
Take `Cc1oc(=O)oc1COc1ccc([N+](=O)[O-])c2cccnc12` [Compound 77, 4-methyl-5-((5-nitroquinolin-8-yloxy)methyl)-1,3-dioxol-2-one]: the solubility at 24 h in data set [1] (setting [6]) amounted to 21.2 µg/mL (≈ 70.3 µM).

The values are drawn from patent publication US12152048B2, “Nitroxoline prodrug and use thereof” (Jiangsu Yahong Meditech Co., Ltd., priority 2018, dated 2024).
